# From publication PMC7313537 (PLoS ONE, 2020)
# Experiments:
# Assay in all cases: Broader kinase panel (PerkinElmer)
# Format in all cases: biochemical
# Details in all cases: 100 nM; read-out: Average Percent Inhibition
# PDGFRA (D842V) = target: T1, PDGFRA (D842V) (Homo sapiens, UniProt P16234, D842V)
# T1 construct: purchased In-house HTRF panel (56 kinases) and PerkinElmer (161-kinase panel)
# Text: (§1) […]. […] […].
# EPHA5 = target: T2, EPHA5 (Homo sapiens, UniProt P54756)
# T2 construct: purchased In-house HTRF panel (56 kinases) and PerkinElmer (161-kinase panel)
# Text: as §1
# EPHA4 = target: T3, EPHA4 (Homo sapiens, UniProt P54764)
# T3 construct: purchased In-house HTRF panel (56 kinases) and PerkinElmer (161-kinase panel)
# Text: as §1
# IKK-beta = target: T4, IKK-beta (Homo sapiens, UniProt O14920)
# T4 construct: purchased In-house HTRF panel (56 kinases) and PerkinElmer (161-kinase panel)
# Text: as §1
# HGK = target: T5, HGK (Homo sapiens, UniProt O95819)
# T5 construct: purchased In-house HTRF panel (56 kinases) and PerkinElmer (161-kinase panel)
# Text: as §1
# Casein kinase 1g2 = target: T6, Casein kinase 1g2 (Homo sapiens, UniProt P78368)
# T6 construct: purchased In-house HTRF panel (56 kinases) and PerkinElmer (161-kinase panel)
# Text: as §1
# Abl (T315I) = target: T7, Abl (T315I) (Homo sapiens, UniProt P00519, T315I)
# T7 construct: purchased In-house HTRF panel (56 kinases) and PerkinElmer (161-kinase panel)
# Text: as §1
# RET Y791F = target: T8, RET Y791F (Homo sapiens, UniProt P07949, Y791F)
# T8 construct: purchased In-house HTRF panel (56 kinases) and PerkinElmer (161-kinase panel)
# Text: as §1
# INSR = target: T9, INSR (Homo sapiens, UniProt P06213)
# T9 construct: purchased In-house HTRF panel (56 kinases) and PerkinElmer (161-kinase panel)
# Text: as §1
# SGK1 = target: T10, SGK1 (Homo sapiens, UniProt O00141)
# T10 construct: purchased In-house HTRF panel (56 kinases) and PerkinElmer (161-kinase panel)
# Text: as §1
# SRC = target: T11, SRC (Homo sapiens, UniProt P12931)
# T11 construct: purchased In-house HTRF panel (56 kinases) and PerkinElmer (161-kinase panel)
# Text: as §1
# Ca MKII_gamma = target: T12, Ca MKII_gamma (Homo sapiens, UniProt Q13555)
# T12 construct: purchased In-house HTRF panel (56 kinases) and PerkinElmer (161-kinase panel)
# Text: as §1
# HER4 = target: T13, HER4 (Homo sapiens, UniProt Q15303)
# T13 construct: purchased In-house HTRF panel (56 kinases) and PerkinElmer (161-kinase panel)
# Text: as §1
# CAMK4 = target: T14, CAMK4 (Homo sapiens, UniProt Q16566)
# T14 construct: purchased In-house HTRF panel (56 kinases) and PerkinElmer (161-kinase panel)
# Text: as §1
# Flt3(D835Y) = target: T15, Flt3(D835Y) (Homo sapiens, UniProt P36888, D835Y)
# T15 construct: purchased In-house HTRF panel (56 kinases) and PerkinElmer (161-kinase panel)
# Text: as §1
# EGFR (ErbB1) T790M L858R = target: T16, EGFR (ErbB1) T790M L858R (Homo sapiens, UniProt P00533, L858R/T790M)
# T16 construct: purchased In-house HTRF panel (56 kinases) and PerkinElmer (161-kinase panel)
# Text: as §1
# PHKG2 = target: T17, PHKG2 (Homo sapiens, UniProt P15735)
# T17 construct: purchased In-house HTRF panel (56 kinases) and PerkinElmer (161-kinase panel)
# Text: as §1
# [1] = target: T18, AMPK-alpha2/beta1/gamma 1 (Homo sapiens, UniProt P54646)
# T18 construct: purchased In-house HTRF panel (56 kinases) and PerkinElmer (161-kinase panel)
# Text: as §1
# TYRO3 = target: T19, TYRO3 (Homo sapiens, UniProt Q06418)
# T19 construct: purchased In-house HTRF panel (56 kinases) and PerkinElmer (161-kinase panel)
# Text: as §1
# PKC-theta = target: T20, PKC-theta (Homo sapiens, UniProt Q04759)
# T20 construct: purchased In-house HTRF panel (56 kinases) and PerkinElmer (161-kinase panel)
# Text: as §1
# PKD3 = target: T21, PKD3 (Homo sapiens, UniProt O94806)
# T21 construct: purchased In-house HTRF panel (56 kinases) and PerkinElmer (161-kinase panel)
# Text: as §1
# CHK1 = target: T22, CHK1 (Homo sapiens, UniProt O14757)
# T22 construct: purchased In-house HTRF panel (56 kinases) and PerkinElmer (161-kinase panel)
# Text: as §1
# TSSK2 = target: T23, TSSK2 (Homo sapiens, UniProt Q96PF2)
# T23 construct: purchased In-house HTRF panel (56 kinases) and PerkinElmer (161-kinase panel)
# Text: as §1
# Abl (Q252H) = target: T24, Abl (Q252H) (Homo sapiens, UniProt P00519, Q252H)
# T24 construct: purchased In-house HTRF panel (56 kinases) and PerkinElmer (161-kinase panel)
# Text: as §1
# PDGFR_alpha = target: T25, PDGFR_alpha (Homo sapiens, UniProt P16234)
# T25 construct: purchased In-house HTRF panel (56 kinases) and PerkinElmer (161-kinase panel)
# Text: as §1
# TEC = target: T26, TEC (Homo sapiens, UniProt P42680)
# T26 construct: purchased In-house HTRF panel (56 kinases) and PerkinElmer (161-kinase panel)
# Text: as §1
# PKA = target: T27, PKA (Homo sapiens, UniProt P17612)
# T27 construct: purchased In-house HTRF panel (56 kinases) and PerkinElmer (161-kinase panel)
# Text: as §1
# FES = target: T28, FES (Homo sapiens, UniProt P07332)
# T28 construct: purchased In-house HTRF panel (56 kinases) and PerkinElmer (161-kinase panel)
# Text: as §1
# DCAMKL1 = target: T29, DCAMKL1 (Homo sapiens, UniProt O15075)
# T29 construct: purchased In-house HTRF panel (56 kinases) and PerkinElmer (161-kinase panel)
# Text: as §1
# EPHB4 = target: T30, EPHB4 (Homo sapiens, UniProt P54760)
# T30 construct: purchased In-house HTRF panel (56 kinases) and PerkinElmer (161-kinase panel)
# Text: as §1
# PRAK = target: T31, PRAK (Homo sapiens, UniProt Q8IW41)
# T31 construct: purchased In-house HTRF panel (56 kinases) and PerkinElmer (161-kinase panel)
# Text: as §1
# JAK2 = target: T32, JAK2 (Homo sapiens, UniProt O60674)
# T32 construct: purchased In-house HTRF panel (56 kinases) and PerkinElmer (161-kinase panel)
# Text: as §1
# DAPK1 = target: T33, DAPK1 (Homo sapiens, UniProt P53355)
# T33 construct: purchased In-house HTRF panel (56 kinases) and PerkinElmer (161-kinase panel)
# Text: as §1
# FGFR3 [K650E] = target: T34, FGFR3 [K650E] (Homo sapiens, UniProt P22607, K650E)
# T34 construct: purchased In-house HTRF panel (56 kinases) and PerkinElmer (161-kinase panel)
# Text: as §1
# EGFR = EGFR (Homo sapiens, UniProt P00533)
# Text: as §1
# EPHB1 = target: T35, EPHB1 (Homo sapiens, UniProt P54762)
# T35 construct: purchased In-house HTRF panel (56 kinases) and PerkinElmer (161-kinase panel)
# Text: as §1
# EPHB3 = target: T36, EPHB3 (Homo sapiens, UniProt P54753)
# T36 construct: purchased In-house HTRF panel (56 kinases) and PerkinElmer (161-kinase panel)
# Text: as §1
# Erk1 = target: T37, Erk1 (Homo sapiens, UniProt P27361)
# T37 construct: purchased In-house HTRF panel (56 kinases) and PerkinElmer (161-kinase panel)
# Text: as §1
# CSNK1A1 = target: T38, CSNK1A1 (Homo sapiens, UniProt P48729)
# T38 construct: purchased In-house HTRF panel (56 kinases) and PerkinElmer (161-kinase panel)
# Text: as §1
# c-TAK1 = target: T39, c-TAK1 (Homo sapiens, UniProt P27448)
# T39 construct: purchased In-house HTRF panel (56 kinases) and PerkinElmer (161-kinase panel)
# Text: as §1
# CK1-epsilon = target: T40, CK1-epsilon (Homo sapiens, UniProt P49674)
# T40 construct: purchased In-house HTRF panel (56 kinases) and PerkinElmer (161-kinase panel)
# Text: as §1
# p38-delta = target: T41, p38-delta (Homo sapiens, UniProt O15264)
# T41 construct: purchased In-house HTRF panel (56 kinases) and PerkinElmer (161-kinase panel)
# Text: as §1
# T17 sequence (P15735 whole entry, species assumed): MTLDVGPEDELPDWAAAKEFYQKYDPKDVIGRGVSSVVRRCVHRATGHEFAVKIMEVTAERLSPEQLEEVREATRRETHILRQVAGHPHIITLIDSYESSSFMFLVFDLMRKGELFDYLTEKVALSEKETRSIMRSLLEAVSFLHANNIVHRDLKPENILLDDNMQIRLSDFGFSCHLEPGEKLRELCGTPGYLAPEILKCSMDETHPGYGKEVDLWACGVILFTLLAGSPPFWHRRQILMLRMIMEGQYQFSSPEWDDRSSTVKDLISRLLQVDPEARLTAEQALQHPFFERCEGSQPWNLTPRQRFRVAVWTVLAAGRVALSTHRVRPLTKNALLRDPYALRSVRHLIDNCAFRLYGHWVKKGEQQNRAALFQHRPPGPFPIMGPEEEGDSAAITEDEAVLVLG
# T39 sequence (P27448 whole entry): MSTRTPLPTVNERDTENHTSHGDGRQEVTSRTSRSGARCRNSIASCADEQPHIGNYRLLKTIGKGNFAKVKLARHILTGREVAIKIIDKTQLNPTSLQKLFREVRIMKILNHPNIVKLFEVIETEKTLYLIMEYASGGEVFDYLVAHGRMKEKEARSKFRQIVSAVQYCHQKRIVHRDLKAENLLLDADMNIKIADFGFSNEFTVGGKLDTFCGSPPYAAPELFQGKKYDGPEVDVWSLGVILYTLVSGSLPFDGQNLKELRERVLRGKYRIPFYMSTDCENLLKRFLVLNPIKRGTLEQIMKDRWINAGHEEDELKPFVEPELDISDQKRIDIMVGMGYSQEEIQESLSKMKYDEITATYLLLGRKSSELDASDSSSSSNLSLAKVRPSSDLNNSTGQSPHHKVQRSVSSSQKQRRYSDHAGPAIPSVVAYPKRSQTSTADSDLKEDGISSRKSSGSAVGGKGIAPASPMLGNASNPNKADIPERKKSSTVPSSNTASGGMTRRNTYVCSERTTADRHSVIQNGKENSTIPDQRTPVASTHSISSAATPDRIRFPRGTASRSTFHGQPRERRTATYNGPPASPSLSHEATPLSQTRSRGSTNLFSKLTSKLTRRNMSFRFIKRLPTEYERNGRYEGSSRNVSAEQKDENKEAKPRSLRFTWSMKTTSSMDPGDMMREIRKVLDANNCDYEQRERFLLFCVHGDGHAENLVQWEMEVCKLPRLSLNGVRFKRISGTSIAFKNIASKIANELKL
# T28 sequence (P07332 whole entry): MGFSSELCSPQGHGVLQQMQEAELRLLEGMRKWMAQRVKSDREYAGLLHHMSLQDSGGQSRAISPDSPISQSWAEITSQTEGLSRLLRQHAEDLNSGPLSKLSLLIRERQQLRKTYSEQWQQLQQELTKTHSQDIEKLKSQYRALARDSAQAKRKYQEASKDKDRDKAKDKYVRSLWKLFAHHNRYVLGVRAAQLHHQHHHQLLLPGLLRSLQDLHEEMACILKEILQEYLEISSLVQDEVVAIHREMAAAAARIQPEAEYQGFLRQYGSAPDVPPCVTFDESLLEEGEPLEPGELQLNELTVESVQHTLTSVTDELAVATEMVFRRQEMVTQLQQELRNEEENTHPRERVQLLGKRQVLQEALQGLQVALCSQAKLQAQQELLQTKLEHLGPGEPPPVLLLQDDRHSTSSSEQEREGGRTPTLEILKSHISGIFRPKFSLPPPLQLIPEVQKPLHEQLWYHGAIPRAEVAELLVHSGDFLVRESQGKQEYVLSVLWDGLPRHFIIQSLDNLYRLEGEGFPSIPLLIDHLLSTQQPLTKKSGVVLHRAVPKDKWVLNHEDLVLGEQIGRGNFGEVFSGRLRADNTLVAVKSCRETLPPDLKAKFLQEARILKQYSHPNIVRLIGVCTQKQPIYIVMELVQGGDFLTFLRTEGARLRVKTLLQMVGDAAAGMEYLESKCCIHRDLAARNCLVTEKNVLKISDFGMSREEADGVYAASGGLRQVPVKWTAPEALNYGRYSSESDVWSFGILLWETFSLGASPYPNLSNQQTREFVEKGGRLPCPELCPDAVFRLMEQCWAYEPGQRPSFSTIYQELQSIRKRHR
# T14 sequence (Q16566 whole entry): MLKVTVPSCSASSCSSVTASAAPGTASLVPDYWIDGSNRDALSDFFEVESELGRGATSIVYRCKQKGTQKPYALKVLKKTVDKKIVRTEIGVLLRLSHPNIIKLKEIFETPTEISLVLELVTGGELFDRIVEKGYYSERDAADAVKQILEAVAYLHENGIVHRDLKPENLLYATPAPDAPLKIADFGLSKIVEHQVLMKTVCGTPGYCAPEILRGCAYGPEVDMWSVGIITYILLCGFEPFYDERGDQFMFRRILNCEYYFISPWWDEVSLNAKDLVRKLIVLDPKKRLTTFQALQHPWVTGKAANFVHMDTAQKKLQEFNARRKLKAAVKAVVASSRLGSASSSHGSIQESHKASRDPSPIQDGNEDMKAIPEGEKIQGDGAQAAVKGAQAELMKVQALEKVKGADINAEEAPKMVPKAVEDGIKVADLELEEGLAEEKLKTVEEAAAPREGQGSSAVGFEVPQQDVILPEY
# T3 sequence (P54764 20-986): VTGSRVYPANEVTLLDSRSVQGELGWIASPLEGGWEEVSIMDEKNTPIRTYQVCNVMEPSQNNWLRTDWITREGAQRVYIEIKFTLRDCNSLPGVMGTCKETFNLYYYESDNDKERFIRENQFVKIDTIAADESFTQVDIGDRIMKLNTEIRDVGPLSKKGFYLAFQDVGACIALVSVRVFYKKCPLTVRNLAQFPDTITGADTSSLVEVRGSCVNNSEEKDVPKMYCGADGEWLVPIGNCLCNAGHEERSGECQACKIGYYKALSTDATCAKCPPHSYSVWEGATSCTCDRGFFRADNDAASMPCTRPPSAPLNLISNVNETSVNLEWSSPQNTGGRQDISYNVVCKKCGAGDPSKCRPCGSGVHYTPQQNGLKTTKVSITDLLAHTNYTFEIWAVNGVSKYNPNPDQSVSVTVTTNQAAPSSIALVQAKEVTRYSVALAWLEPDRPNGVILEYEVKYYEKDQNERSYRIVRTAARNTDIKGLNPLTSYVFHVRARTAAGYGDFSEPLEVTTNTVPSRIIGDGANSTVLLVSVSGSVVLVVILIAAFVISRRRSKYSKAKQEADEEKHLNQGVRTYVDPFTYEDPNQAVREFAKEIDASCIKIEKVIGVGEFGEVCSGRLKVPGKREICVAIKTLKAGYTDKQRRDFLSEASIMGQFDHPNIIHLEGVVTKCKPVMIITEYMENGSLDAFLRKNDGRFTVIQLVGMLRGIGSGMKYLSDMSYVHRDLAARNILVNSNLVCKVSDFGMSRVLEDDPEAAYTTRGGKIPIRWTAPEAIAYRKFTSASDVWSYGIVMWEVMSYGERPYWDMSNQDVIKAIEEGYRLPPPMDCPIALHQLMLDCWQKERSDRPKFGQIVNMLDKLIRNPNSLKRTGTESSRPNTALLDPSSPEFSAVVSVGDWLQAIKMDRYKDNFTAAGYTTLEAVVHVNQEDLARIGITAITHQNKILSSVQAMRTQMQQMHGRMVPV
# T38 sequence (P48729 whole entry): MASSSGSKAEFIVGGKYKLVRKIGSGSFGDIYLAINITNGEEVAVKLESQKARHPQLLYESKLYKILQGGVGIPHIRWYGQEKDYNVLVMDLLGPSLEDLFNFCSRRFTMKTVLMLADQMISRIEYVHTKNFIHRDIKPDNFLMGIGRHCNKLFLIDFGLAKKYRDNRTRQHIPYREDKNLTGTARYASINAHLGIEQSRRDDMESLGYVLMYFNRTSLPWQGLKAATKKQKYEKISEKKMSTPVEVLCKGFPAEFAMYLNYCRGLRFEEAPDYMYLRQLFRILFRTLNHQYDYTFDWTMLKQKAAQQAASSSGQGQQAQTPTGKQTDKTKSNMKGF
# EGFR, sequence (P00533 25-1210, species assumed): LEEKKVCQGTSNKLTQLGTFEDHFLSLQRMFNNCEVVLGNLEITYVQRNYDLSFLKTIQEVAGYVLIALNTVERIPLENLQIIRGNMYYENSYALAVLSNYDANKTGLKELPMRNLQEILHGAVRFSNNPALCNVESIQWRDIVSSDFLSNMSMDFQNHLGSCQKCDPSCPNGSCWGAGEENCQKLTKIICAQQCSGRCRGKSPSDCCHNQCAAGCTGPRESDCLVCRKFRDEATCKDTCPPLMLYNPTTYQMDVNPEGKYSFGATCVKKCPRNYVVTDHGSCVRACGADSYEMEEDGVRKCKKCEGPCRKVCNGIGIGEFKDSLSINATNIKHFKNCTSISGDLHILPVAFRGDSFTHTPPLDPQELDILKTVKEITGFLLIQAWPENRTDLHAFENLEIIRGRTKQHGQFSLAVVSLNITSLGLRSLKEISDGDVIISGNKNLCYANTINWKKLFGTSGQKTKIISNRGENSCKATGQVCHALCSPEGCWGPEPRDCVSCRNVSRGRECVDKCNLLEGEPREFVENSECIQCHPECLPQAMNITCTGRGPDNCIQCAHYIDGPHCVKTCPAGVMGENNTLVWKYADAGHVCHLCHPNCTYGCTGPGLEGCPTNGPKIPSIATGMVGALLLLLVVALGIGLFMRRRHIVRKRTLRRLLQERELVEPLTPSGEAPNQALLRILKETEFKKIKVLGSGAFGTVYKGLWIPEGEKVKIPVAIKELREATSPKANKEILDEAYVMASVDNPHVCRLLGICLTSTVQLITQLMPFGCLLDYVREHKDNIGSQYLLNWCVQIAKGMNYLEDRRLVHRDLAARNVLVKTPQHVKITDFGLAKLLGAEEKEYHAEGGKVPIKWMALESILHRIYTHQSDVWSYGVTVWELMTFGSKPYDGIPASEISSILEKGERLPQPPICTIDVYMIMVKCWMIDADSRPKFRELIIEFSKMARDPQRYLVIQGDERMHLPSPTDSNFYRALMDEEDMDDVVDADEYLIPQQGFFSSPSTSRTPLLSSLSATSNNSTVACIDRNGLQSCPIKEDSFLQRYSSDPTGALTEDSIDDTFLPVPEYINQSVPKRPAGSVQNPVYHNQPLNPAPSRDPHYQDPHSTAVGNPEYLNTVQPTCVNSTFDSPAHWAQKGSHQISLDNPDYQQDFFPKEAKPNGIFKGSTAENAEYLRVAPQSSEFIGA
structure (smiles),measurement,setting,value
"CCN1C(=O)N(c2c(F)c(OC)cc(OC)c2F)Cc2cnc3[nH]c(CN4CCOCC4)cc3c21 [INCB054828, pemigatinib]",inhibition at 0.1 µM,PDGFRA (D842V),18%
same,inhibition at 0.1 µM,EPHA5,2%
same,inhibition at 0.1 µM,EPHA4,3%
same,inhibition at 0.1 µM,IKK-beta,4%
same,inhibition at 0.1 µM,HGK,-6%
same,inhibition at 0.1 µM,Casein kinase 1g2,-1%
same,inhibition at 0.1 µM,Abl (T315I),2%
same,inhibition at 0.1 µM,RET Y791F,6%
same,inhibition at 0.1 µM,INSR,1%
same,inhibition at 0.1 µM,SGK1,1%
same,inhibition at 0.1 µM,SRC,1%
same,inhibition at 0.1 µM,Ca MKII_gamma,-9%
same,inhibition at 0.1 µM,HER4,-15%
same,inhibition at 0.1 µM,CAMK4,-1%
same,inhibition at 0.1 µM,Flt3(D835Y),1%
same,inhibition at 0.1 µM,EGFR (ErbB1) T790M L858R,5%
same,inhibition at 0.1 µM,PHKG2,-1%
same,inhibition at 0.1 µM,[1],7%
same,inhibition at 0.1 µM,TYRO3,1%
same,inhibition at 0.1 µM,PKC-theta,2%
same,inhibition at 0.1 µM,PKD3,0%
same,inhibition at 0.1 µM,CHK1,0%
same,inhibition at 0.1 µM,TSSK2,-3%
same,inhibition at 0.1 µM,Abl (Q252H),1%
same,inhibition at 0.1 µM,PDGFR_alpha,-4%
same,inhibition at 0.1 µM,TEC,19%
same,inhibition at 0.1 µM,PKA,1%
same,inhibition at 0.1 µM,FES,-11%
same,inhibition at 0.1 µM,DCAMKL1,-4%
same,inhibition at 0.1 µM,EPHB4,4%
same,inhibition at 0.1 µM,PRAK,-2%
same,inhibition at 0.1 µM,JAK2,8%
same,inhibition at 0.1 µM,DAPK1,1%
same,inhibition at 0.1 µM,FGFR3 [K650E],84%
same,inhibition at 0.1 µM,EGFR,23%
same,inhibition at 0.1 µM,EPHB1,0%
same,inhibition at 0.1 µM,EPHB3,0%
same,inhibition at 0.1 µM,Erk1,1%
same,inhibition at 0.1 µM,CSNK1A1,-1%
same,inhibition at 0.1 µM,c-TAK1,2%
same,inhibition at 0.1 µM,CK1-epsilon,-1%
same,inhibition at 0.1 µM,p38-delta,2%
